Source: PMC11387234, “Identification of novel inhibitors of the transcriptional coactivator MRTF-A for HCC therapy” (Molecular Therapy Oncology, 2024)

Assays:
HuH7 cells [1] = assay: Matrigel invasion assay; format: cell-based; conditions: 5 μM, 20 h
Description: The cell invasion assay was performed using Corning BioCoat Matrigel Invasion Chambers (Corning, Tewksbury, MA, USA) according to the manufacturer’s instructions. 2.5 × 10^4 cells per well were seeded and incubated for 20 h at 37°C. The invaded cells were fixed with methanol, stained with crystal violet, and counted under a light microscope (Carl Zeiss, Oberkochen, Germany).

RhoA-TRPM7 interaction = target: T1, RhoA-TRPM7 interaction (Homo sapiens, UniProt Q96QT4); assay: In situ proximity ligation assay for endogenous TRPM7 and RhoA; format: cell-based; conditions: HuH7 cells, 5 μM, 6 h
T1 construct: proximity ligation assay (PLA) for endogenous TRPM7 and RhoA in HuH7 cells; endogenous in cells; host or cells: HuH7
T1 sequence (Q96QT4 whole entry): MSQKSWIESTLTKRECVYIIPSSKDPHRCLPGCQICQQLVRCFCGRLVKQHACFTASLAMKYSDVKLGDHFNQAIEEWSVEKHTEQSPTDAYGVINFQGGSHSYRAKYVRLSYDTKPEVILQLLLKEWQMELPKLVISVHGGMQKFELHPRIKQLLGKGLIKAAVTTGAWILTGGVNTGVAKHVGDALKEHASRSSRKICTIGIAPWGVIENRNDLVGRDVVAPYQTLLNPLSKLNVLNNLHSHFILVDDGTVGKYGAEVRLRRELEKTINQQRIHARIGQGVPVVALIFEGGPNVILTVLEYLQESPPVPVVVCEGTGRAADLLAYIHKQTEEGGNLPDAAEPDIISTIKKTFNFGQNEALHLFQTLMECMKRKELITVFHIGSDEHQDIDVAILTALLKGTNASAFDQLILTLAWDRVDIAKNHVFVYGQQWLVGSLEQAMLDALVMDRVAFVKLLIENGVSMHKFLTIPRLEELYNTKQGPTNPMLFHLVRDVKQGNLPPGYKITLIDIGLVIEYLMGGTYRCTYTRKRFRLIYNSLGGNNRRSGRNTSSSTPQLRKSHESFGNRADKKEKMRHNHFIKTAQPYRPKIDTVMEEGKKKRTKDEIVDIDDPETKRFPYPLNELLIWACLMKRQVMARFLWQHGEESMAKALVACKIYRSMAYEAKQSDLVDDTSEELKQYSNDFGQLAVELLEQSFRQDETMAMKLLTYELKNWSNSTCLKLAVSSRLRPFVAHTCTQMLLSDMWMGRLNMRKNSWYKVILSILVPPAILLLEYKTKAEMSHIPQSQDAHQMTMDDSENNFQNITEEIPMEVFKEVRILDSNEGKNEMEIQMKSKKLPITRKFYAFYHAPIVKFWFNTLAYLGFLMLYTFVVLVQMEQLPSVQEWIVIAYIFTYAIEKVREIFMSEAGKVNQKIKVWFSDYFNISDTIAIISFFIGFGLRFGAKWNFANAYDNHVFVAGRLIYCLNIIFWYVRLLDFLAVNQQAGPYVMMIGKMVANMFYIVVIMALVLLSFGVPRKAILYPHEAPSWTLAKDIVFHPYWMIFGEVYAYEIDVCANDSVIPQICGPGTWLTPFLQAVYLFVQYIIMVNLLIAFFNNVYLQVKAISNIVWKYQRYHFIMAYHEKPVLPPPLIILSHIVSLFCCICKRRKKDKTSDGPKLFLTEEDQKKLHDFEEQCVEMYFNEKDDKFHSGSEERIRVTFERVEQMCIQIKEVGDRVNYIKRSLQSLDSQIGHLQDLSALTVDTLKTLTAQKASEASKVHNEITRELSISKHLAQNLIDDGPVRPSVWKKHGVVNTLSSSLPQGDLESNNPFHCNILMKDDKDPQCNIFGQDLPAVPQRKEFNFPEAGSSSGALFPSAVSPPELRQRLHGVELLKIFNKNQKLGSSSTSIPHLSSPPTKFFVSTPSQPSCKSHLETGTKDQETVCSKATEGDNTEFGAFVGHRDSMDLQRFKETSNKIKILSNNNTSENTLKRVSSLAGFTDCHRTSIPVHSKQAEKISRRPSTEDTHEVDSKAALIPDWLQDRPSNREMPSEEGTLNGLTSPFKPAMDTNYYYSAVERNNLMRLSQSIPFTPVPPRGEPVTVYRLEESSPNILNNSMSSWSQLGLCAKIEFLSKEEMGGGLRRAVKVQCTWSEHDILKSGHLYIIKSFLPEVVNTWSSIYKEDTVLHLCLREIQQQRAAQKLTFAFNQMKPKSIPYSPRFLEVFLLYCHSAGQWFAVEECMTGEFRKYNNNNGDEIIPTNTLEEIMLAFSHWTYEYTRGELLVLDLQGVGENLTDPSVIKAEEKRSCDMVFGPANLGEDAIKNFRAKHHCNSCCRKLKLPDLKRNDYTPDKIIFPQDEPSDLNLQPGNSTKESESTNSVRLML
Description: The DuoLink In situ Red Starter Kit Mouse/Rabbit (Sigma-Aldrich, Merck) was used according to the manufacturer’s protocol for DuoLink In Situ Solutions (Sigma-Aldrich, Merck). Anti-TRPM7/TRPM6 (Abcam, Cambridge, UK), anti-RhoA (NewEast Bioscience, Malvern, PA, USA), anti-MRTF-A (Santa Cruz Biotechnology, Santa Cruz, CA, USA), and anti-Filamin A (Thermo Fisher Scientific, Schwerte, Germany) antibodies were used as primary antibodies for incubation (Table S4). Images were recorded with a fluorescence microscope (Nikon, Düsseldorf, Germany).

HuH7 cells [2] = assay: Cell proliferation assay (cell counting) in HuH7 cells; format: cell-based; conditions: titration 2.5, 5, 7.5, 10 μM
Description: Cells were seeded and counted every 24 h for 5 days by using a Neubauer counting chamber.

TSPAN5 = assay: Immunoblotting for TSPAN5; format: cell-based; conditions: HuH7 cells, 5 μM
Description: (§1) Proteins were denatured by boiling in Laemmli buffer at 95°C. According to their molecular weight, the proteins were separated by SDS-PAGE for 2 h at 100 V using the Bio-Rad Western Blot System (Bio-Rad, Hercules, California, USA) and the power supply peQPOWER 300 (Peqlab Biotechnology, Erlangen, Germany). The proteins were then transferred onto a polyvinylidene fluoride membrane (Merck, Darmstadt, Germany), which was activated in 100% methanol and equilibrated in a transfer buffer. The transfer was done at 350 mA for approximately 2 h. To avoid non-specific protein binding, the membrane was blocked with 5% milk powder in TBS-T. Afterward, the membrane was incubated over night at 4°C with the primary (Table S2) and the respective secondary antibodies for 1 h at room temperature (Table S3). Both was done with gentle shaking. The proteins were detected via chemiluminescence in a luminescent imager (ChemiDoc Imaging System, Bio-Rad).

MRTF-A-GFP = assay: FLIP assay, nuclear export of MRTF-A-GFP; format: cell-based; conditions: HuH7 cells, 5 μM, compared to control cells
Description: HuH7 cells were plated on 35-mm cell culture dishes and transfected with 200 ng MRTF-A-GFP and 800 ng pEF-FLAG plasmid DNA by using JetPrime (Polyplus, Illkirch, France). After treatment of the cells with the respective inhibitor, cells were imaged at 37°C, 5% CO2 in an Okolab Bold Line Cage Incubator using a Carl Zeiss LSM 700 confocal microscope with Axio Imager M2 and W Plan-Apochromat 63×/1.0 dipping objective. The software ZEN 2012 was used. Imaging parameters were as follows: pinhole diameter 1, resolution 256 × 256, bit depth 12, speed 7, line average 1, and zoom 2. The cytoplasm was bleached continuously starting after 3 scans with 2-s intervals using 100% laser power (488 nm/10 mW), and the nuclear fluorescence was recorded. The pre-bleach values were set to 1.

HuH7 cells [3] = assay: SA-β-Gal staining (cellular senescence) in HuH7 cells; format: cell-based
Description: (§2) Cellular senescence of treated cells was determined using the Senescence-β-galactosidase staining kit according to the manufacturer’s instructions (Cell Signaling Technology, Danvers, MA, USA). 300 cells were counted. The ratio stained to unstained cells were used to calculate the percentage of SA-β-gal-positive cells.

TGF-β1 = assay: Immunoblotting for TGF-β1; format: cell-based; conditions: HuH7 cells, 5 μM
Description: as §1

HuH6 cells = assay: SA-β-Gal staining (cellular senescence) in HuH6 cells; format: cell-based
Description: as §2

SRF = SRF reporter gene (5×SRE-luciferase) assay; format: cell-based; conditions: HuH7 cells, 24 h
Description: HuH7 cells were seeded in a 12-well plate and transiently transfected with 0.25 μg 5×SRE and 0.15 μg Renilla luciferase simian virus 40 (SV40) promoter reporter as an internal control. The next day, cells were treated with inhibitors, as indicated in the figure legends, and the Dual-Luciferase Reporter Assay System (Promega, Madison, Wisconsin, USA) and the BioFix Lumi-10 (Macherey-Nagel, Düren, Germany) were used. The firefly luciferase activity was normalized to the Renilla luciferase activity to compensate for divergent transfection efficiencies.

TRPM7 = TRPM7 (Mus musculus, UniProt Q923J1); assay: Aequorin-based Ca2+ influx assay for TRPM7 inhibition; format: cell-based
Sequence of TRPM7 (Q923J1 whole entry): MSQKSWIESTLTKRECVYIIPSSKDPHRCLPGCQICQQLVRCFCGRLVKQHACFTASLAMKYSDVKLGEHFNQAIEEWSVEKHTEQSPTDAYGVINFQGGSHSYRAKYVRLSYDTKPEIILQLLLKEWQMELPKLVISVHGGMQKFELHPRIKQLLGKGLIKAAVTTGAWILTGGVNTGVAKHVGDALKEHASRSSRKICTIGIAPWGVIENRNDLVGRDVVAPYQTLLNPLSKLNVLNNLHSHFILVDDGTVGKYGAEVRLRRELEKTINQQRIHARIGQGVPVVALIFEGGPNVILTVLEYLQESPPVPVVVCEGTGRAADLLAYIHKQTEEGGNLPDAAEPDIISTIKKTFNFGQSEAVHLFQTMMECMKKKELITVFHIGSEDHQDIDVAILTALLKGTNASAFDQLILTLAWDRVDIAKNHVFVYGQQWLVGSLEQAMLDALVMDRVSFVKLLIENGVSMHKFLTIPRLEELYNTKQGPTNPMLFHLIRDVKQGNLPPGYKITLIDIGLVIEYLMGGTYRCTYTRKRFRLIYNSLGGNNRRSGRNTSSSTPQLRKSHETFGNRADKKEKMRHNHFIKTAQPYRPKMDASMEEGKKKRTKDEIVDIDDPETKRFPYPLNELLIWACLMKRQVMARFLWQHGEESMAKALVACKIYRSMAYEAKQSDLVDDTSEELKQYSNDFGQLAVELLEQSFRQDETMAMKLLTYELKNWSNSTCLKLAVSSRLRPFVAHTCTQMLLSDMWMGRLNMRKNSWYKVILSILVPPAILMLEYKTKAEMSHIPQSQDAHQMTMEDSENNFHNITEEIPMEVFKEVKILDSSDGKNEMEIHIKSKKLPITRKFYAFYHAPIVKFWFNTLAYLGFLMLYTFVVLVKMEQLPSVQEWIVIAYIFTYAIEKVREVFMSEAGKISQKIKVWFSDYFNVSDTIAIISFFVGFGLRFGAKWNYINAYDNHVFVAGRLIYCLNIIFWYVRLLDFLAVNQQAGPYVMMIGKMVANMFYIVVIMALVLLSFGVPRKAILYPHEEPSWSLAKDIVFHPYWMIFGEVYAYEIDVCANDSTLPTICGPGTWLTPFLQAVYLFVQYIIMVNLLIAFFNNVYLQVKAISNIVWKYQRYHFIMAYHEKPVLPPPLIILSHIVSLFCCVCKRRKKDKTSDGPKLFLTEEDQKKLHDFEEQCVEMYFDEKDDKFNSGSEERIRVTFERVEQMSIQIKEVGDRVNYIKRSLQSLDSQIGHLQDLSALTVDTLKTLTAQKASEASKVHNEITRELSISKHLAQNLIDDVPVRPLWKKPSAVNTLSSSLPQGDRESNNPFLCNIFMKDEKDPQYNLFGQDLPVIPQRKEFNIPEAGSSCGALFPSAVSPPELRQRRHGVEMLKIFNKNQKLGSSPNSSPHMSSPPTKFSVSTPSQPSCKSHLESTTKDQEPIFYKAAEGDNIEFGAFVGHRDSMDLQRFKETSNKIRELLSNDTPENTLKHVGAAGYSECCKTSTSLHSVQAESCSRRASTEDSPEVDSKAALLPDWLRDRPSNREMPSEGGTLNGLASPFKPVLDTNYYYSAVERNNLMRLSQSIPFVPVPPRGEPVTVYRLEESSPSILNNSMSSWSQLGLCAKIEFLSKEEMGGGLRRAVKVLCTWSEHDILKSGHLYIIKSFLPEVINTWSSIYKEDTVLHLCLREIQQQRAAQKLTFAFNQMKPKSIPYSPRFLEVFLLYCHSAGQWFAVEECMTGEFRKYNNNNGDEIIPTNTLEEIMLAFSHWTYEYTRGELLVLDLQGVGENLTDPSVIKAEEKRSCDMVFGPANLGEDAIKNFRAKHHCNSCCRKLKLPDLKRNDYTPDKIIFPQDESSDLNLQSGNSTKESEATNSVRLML
Description: HEK293T cells were transfected with 2 μg TRPM7 plasmid DNA and 0.1 μg pG5A plasmid DNA. After 24 h, the cells were washed with Mg^2+-free HEPES-buffered saline (HBS) containing 140 mM NaCl, 5.4 mM KCl, 0.5 mM CaCl2, 5 mM HEPES (pH 7.4), and 10 mM glucose and resuspended in Mg^2+-free HBS. After 30 min of incubation with 5 μM coelenterazine (Biaffin) at room temperature to reconstitute the aequorin, cells were washed two times by centrifugation at 2,000 rpm for 5 min (Heraeus Pico 17 microcentrifuge, Thermo Fisher Scientific). Then, they were resuspended in Mg^2+-free HBS and plated into 96-well plates. Luminescence was detected at room temperature using a CLARIOstar microplate reader (BMG Labtech). CaCl2-containing Mg^2+-free HBS was injected in the presence or absence of the inhibitors to increase the extracellular Ca^2+ concentration to 5 mM. Cell lysis with 0.1% (v/v) Triton X-100 in the Mg^2+-free HBS was used to terminate the experiment, and total bioluminescence was measured. The analysis of the bioluminescence rates (counts/s) was done in 1-s intervals and calibrated as [Ca^2+]i values using the following equation: p[Ca^2+]i=0,332588(−log(k))+5,5593 k represents the rate of aequorin consumption.
The following equation was used to determine the IC50 values of the inhibitors: E(c)=Emin+[…]/1+c^h/IC50^h
E(c) is the functional effect at the concentration c of the inhibitor, Emin is the minimal effect, Emax is the maximal effect, IC50 is the concentration of the inhibitor that produces the half-maximal effect, and h is the Hill coefficient. GraphPad Prism 8.4.0 was used for fitting.

MRTF-A = assay: Immunofluorescence of MRTF-A nuclear localization; format: cell-based; conditions: 5 μM; HuH7 and HuH6 cells (Figures 3B and S3A)
Description: Cells were fixated by a 10-min incubation with 4% paraformaldehyde in PBS. To permeabilize the cells, 0.2% Triton X-100 in PBS was used. Blocking was done with 1% BSA in PBS for 30 min at 37°C, followed by incubation with the respective primary antibodies (Table S4) for 1 h at room temperature and the secondary Alexa Fluor 488-coupled antibody (Invitrogen) (Table S5). The nucleus was stained with DAPI (Sigma-Aldrich). Images were taken using a fluorescence microscope (Nikon).

SK3 channels = test system: SK3 channels; parameters: method as in Sørensen et al. 22; conditions: relative to NS8593 (Figure 1C); ref Sørensen et al. 22; cited from earlier work

Clc1cccc2c1CCCC2Nc1nc2ccccc2[nH]1 (stereo not drawn) [compound 5]
Penetration of HuH7 cells into Matrigel (HuH7 cells [1]): strongly impaired
RhoA-TRPM7 interaction (PLA) (RhoA-TRPM7 interaction): inhibited RhoA-TRPM7 interaction
Concentration at which HuH7 cell growth is already significantly reduced (HuH7 cells [2]): 2.5 µM
TSPAN5 expression (protein level) (TSPAN5): almost completely abolished
MRTF-A-GFP fluorescence remaining in the nucleus after 80 s of bleaching (MRTF-A-GFP): less MRTF-A-GFP fluorescence remaining in the nucleus
Concentration that significantly increases SA-β-Gal-positive cells (senescence induction) (HuH7 cells [3]; HuH7 cells): 5 µM
Fold lower concentration than NS8593 for inducing OIS (HuH7 cells [3]; compared with NS8593): 6 fold
TGF-β1 expression (protein level) (TGF-β1): almost completely abolished
Concentration that significantly increases SA-β-Gal-positive cells (senescence induction) (HuH6 cells): 5 µM
Reduction in SRF activity (SRF; 5 μM): 60%
SRF activity (5×SRE-luciferase) (SRF; 30 μM): strong decrease
Hill slopes for TRPM7 inhibition (TRPM7; Ca2+ influx assay, logistic equation fits, n = 3): -1.448
TRPM7 affinity compared to NS (TRPM7; relative to NS8593 (Figure 1C)): >NS
MRTF-A nuclear localization reduced to (MRTF-A): 12%
SK3 affinity compared to NS (SK3 channels): =NS
